# Experimental data as given in patent US6355673B1, “Substituted diaminocarboxylic acids” (Aventis Pharma Deutschland GmbH, priority 1997, dated 2002).
# Key:
# [1] = biological target: T1, stromelysin (MMP-3) (Homo sapiens, UniProt P08254); assay: Enzyme inhibition of the catalytic domain of human stromelysin (fluorogenic substrate); type: biochemical; details: 15 min preincubation, pH=6.5, fluorescence 328 nm (ex)/393 nm (em)
# T1 construct: enzymatic activity of the catalytic domains of human stromelysin and of neutrophil collagenase; made in house
# Procedure: (§1) Preparation and determination of the enzymatic activity of the catalytic domains of human stromelysin and of neutrophil collagenase.
# (§2) The enzymes stromelysin (MMP-3) and neutrophil collagenase (MMP-8) were prepared according to Ye et al. (Biochemistry; 31 (1992) pages 11231-11235). To measure the enzyme activity or the enzyme inhibitor action, 70 μl of buffer solution and 10 μl of enzyme solution are incubated for 15 min with 10 μl of a 10% strength (v/v) aqueous dimethyl sulfoxide solution, which optionally contains the enzyme inhibitor. After addition of 10 μl of a 10% strength (v/v) aqueous dimethyl sulfoxide solution which contains 1 mil/L of the substrates, the enzyme reaction is monitored by fluorescence spectroscopy (328 nm (ex)/393 nm(em)). The enzyme activity is shown as the extinction increase/min. The IC50 values listed in Table 2 are determined as those inhibitor concentrations which in each case lead to a 50% inhibition of the enzyme.
# (§3) The buffer solution contains 0.05% Brij (Sigma, Deisenhofen, Germany) and also 0.1 mol/L tris/HCl, 0.1 mol/L NaCl, 0.01 mol/L CaCl2 and 0.1 mol/L piperazine-N,N′-bis(2-ethanesulfonic acid) (pH=6.5). The enzyme solution contains 5 μg/ml of one of the enzyme domains prepared according to Ye et al. The substrate solution contains 1 mil/L of the fluorogenic substrate (7-methoxycoumarin-4-yl)acetyl-Pro-Leu-Gly-Leu-3-(2′,4′-dinitrophenyl)-L-2,3-diaminopropionyl-Ala-Arg-NH2 (Bachem, Heidelberg, Germany).
# [2] = biological target: T2, neutrophil collagenase (MMP-8) (Homo sapiens, UniProt P22894); assay: Enzyme inhibition of the catalytic domain of neutrophil collagenase (fluorogenic substrate); type: biochemical; details: 15 min preincubation, pH=6.5, fluorescence 328 nm (ex)/393 nm (em)
# T2 construct: enzymatic activity of the catalytic domains of human stromelysin and of neutrophil collagenase; made in house
# Procedure: as §1, §2, §3
# T2 sequence (P22894 100-262 limits assumed): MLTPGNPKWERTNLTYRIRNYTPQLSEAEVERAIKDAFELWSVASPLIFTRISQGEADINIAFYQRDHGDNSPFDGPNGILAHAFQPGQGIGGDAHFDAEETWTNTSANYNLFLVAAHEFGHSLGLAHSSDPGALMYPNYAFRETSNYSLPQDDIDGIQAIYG
# T1 sequence (P08254 100-272 limits assumed): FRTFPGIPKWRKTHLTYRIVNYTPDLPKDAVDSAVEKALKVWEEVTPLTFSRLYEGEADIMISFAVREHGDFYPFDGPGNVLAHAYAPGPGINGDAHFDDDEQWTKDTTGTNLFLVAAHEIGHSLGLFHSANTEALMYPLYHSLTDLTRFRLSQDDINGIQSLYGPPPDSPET
IC50 [1] [nM],IC50 [2] [nM],Structure (SMILES)
5,2,"O=C(CC(C(=O)O)c1ccccc1)NCCC[C@@H](NS(=O)(=O)c1ccc(-c2ccc(Cl)cc2)cc1)C(=O)O (single isomer, unassigned) [Example 38]"
20,4,O=C(Cc1ccc(F)cc1)NCCC[C@H](NS(=O)(=O)c1ccc(-c2ccc(Cl)cc2)cc1)C(=O)O [Example 116]
30,10,Cc1cc(C(=O)NCCC[C@H](NS(=O)(=O)c2ccc(-c3ccc(Cl)cc3)cc2)C(=O)O)ccc1[N+](=O)[O-] [Example 138]
30,10,O=C(/C=C/c1ccc(Cl)cc1)NCCC[C@H](NS(=O)(=O)c1ccc(-c2ccc(Cl)cc2)cc1)C(=O)O [Example 132]
20,6,O=C(NCCC[C@H](NS(=O)(=O)c1ccc(-c2ccc(Cl)cc2)cc1)C(=O)O)C1Cc2ccccc2N1 (stereo partly shown) [Example 96]
5,2,O=C(NCCC[C@@H](NS(=O)(=O)c1ccc(-c2ccc(Cl)cc2)cc1)C(=O)O)C1CC1 [Example 41]
10,3,CN(CCC[C@H](NS(=O)(=O)c1ccc(-c2ccc(Cl)cc2)cc1)C(=O)O)C(=O)C1CC1 [Example 144]
3,2,O=C(NCCC[C@H](NS(=O)(=O)c1ccc(-c2ccc(Cl)cc2)cc1)C(=O)O)c1cccs1 [Example 122]
10,3,CC(C)(C)CC(=O)NCCC[C@@H](NS(=O)(=O)c1ccc(-c2ccc(Cl)cc2)cc1)C(=O)O [Example 46]
70,20,Cc1ccc(S(=O)(=O)NC(=N)NCCC[C@H](NS(=O)(=O)c2ccc(-c3ccc(Cl)cc3)cc2)C(=O)O)cc1 [Example 21]
50,6,O=C(NCCC[C@H](NS(=O)(=O)c1ccc(-c2ccc(Cl)cc2)cc1)C(=O)O)c1cc(Cl)ccc1O [Example 162]
5,2,O=C(O)[C@H](CCCn1sc2ccccc2c1=O)NS(=O)(=O)c1ccc(-c2ccc(Cl)cc2)cc1 [Example 114]
70,60,O=C(NCCC[C@H](NS(=O)(=O)c1ccc(-c2ccc(Cl)cc2)cc1)C(=O)O)c1ccc(Cc2ccccc2)cc1 [Example 103]
60,70,"CC(=O)NCCCC[C@@H](NS(=O)(=O)CCc1ccc(-c2ccccc2)cc1)C(=O)O [Example 9, R-(4-Biphenylethylsulfonyl)-N-epsilon-acetyl-Lys-OH]"
10,2,O=C(O)[C@H](CCCN(C(=O)C1CC1)C(=O)C1CC1)NS(=O)(=O)c1ccc(-c2ccc(Cl)cc2)cc1 [Example 63]
30,5,O=C(NCCC[C@H](NS(=O)(=O)c1ccc(-c2ccc(Cl)cc2)cc1)C(=O)O)c1cc(F)ccc1F [Example 94]
40,20,O=C(NCCC[C@H](NS(=O)(=O)c1ccc(-c2ccc(Cl)cc2)cc1)C(=O)O)c1ccc2ccccc2c1 [Example 110]
5,2,O=C(O)[C@H](CCCNC(=O)N1CCOCC1)NS(=O)(=O)c1ccc(-c2ccc(Cl)cc2)cc1 [Example 128]
4,2,Cc1ccsc1C(=O)NCCC[C@H](NS(=O)(=O)c1ccc(-c2ccc(Cl)cc2)cc1)C(=O)O [Example 100]
20,4,CCC(=O)NCCC[C@H](NS(=O)(=O)c1ccc(-c2ccc(Cl)cc2)cc1)C(=O)O [Example 82]
50,20,COc1cccc(OC)c1C(=O)NCCC[C@H](NS(=O)(=O)c1ccc(-c2ccc(Cl)cc2)cc1)C(=O)O [Example 139]
30,3,CC(C)(CC(=O)O)CC(=O)NCCC[C@H](NS(=O)(=O)c1ccc(-c2ccc(Cl)cc2)cc1)C(=O)O [Example 81]

Structure (SMILES),IC50 [1] [nM],IC50 [2] [nM]
CC1(C)C(C(=O)NCCC[C@H](NS(=O)(=O)c2ccc(-c3ccc(Cl)cc3)cc2)C(=O)O)C1(C)C [Example 70],10,3
